Several values for one entry are separate records, joined by “and”; a condition that tells them apart may be missing. Identical values can stand only once. Like-named read-outs stand apart in the source and are kept apart here.
Tested on: post-surgical adhesions on the traumatized cecal surface
Format: in vivo
Conditions: score of one rat, 21 days
Experimental: The samples were then removed from solution, frozen at −80° C. overnight, relyophilized, and sterilized with ethylene oxide.
Forty-nine 250-300 gram Sprague-Dawley rats were anesthetized with an IM dose of ketamine and xylazine and prepared for aseptic abdominal surgery. […] The adjacent wall of the peritoneal cavity was mildly abraded with the same nylon brush and the cecum was either placed back into the abdominal cavity, covered with biomaterial, which was anchored to the abdominal cavity by suturing it to mesenchymal fat, or injected with a solution and placed back into the abdominal cavity.
Following cecal abrasion, groups of rats received one of the following 8 treatments: • Treatment 1: (Control) No biomaterials were implanted following cecal injury. […] Care was taken to avoid perforating the bowel N=6 rats. • Treatment 3: (PPM) a piece of polypropylene mesh (Bard) was placed over the abraded surface and secured with non-absorbable nylon suture. […] N=6 rats. • Treatment 8: […] DMSO was delivered to the peritoneal cavity prior to closure. N=6 rats.
Following placement of the cecum back into the abdominal cavity, the abdominal wall was closed with 4-0 silk and the skin closed with surgical staples.

[1] = IP high dose: 2.0 mg nimesulide in 1.0 mL DMSO to the peritoneal cavity
[2] = IP low dose: 0.5 mg nimesulide in 1.0 mL DMSO to the peritoneal cavity

Structure (SMILES): CS(=O)(=O)Nc1ccc([N+](=O)[O-])cc1Oc1ccccc1 [nimesulide]
- Extent (of adhesions, score) [1]: 1 (1=adhesions on 25% of the traumatized cecal surface) (3×) and 0
- Tenacity (of adhesions, score) [1]: 2 (2×) and 1 and 0
- Extent (of adhesions, score) [2]: 2 (2=adhesions on 50% of the traumatized cecal surface)
- Tenacity (of adhesions, score) [2]: 2

Reference: patent US20060251702A1, “Implantable materials and methods for inhibiting tissue adhesion formation” (Cook Biotech Incorporated, priority 2005, published 2006)
